Test results reported in ChEMBL document CHEMBL1155294, “Synthesis and evaluation of 6-methyl-3-phenylcoumarins as potent and selective MAO-B inhibitors” (Bioorg Med Chem Lett, 2009).

Columns and labels:
[1] = target: T1, Amine oxidase [flavin-containing] A (Homo sapiens, UniProt P21397); assay: Inhibition of human recombinant MAOA expressed in BTI cells at 100 uM; assay type: cell-based
T1 sequence (P21397 whole entry): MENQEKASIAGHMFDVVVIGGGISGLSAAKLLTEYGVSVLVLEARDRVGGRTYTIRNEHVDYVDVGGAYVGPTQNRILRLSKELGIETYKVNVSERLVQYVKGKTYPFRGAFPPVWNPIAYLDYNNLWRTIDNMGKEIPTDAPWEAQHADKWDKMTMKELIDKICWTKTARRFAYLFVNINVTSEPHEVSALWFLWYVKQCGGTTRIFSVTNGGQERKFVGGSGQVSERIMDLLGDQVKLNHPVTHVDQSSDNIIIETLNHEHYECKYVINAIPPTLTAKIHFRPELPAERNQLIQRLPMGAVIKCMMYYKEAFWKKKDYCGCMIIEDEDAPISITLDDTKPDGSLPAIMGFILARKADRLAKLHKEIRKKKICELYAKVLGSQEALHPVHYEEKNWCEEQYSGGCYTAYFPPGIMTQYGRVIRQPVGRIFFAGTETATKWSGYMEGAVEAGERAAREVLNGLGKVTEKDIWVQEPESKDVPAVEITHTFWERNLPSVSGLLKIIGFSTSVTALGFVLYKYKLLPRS

[2] = target: T2, Amine oxidase [flavin-containing] B (Homo sapiens, UniProt P27338); assay: Inhibition of human recombinant MAOB expressed in BTI cells at 100 uM; assay type: cell-based
T2 sequence (P27338 whole entry): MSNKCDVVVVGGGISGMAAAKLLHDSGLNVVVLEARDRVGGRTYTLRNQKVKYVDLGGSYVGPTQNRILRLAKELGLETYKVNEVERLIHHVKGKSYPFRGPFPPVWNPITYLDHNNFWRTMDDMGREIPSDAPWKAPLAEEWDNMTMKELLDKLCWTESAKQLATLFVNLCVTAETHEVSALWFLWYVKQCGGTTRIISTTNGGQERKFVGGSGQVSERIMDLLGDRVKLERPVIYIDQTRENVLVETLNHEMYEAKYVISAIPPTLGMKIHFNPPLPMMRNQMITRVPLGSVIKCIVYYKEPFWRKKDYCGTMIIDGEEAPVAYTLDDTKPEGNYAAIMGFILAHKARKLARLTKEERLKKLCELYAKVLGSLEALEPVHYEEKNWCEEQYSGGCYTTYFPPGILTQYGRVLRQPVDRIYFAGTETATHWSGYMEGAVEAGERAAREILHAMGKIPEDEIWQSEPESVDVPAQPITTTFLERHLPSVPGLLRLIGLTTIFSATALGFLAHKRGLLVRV

Homo sapiens = species: Homo sapiens; assay: Selectivity index, ratio of IC50 for human recombinant MAOA to IC50 for human recombinant MAOB
[3] = target: T2, Amine oxidase [flavin-containing] B; assay: Inhibition of human recombinant MAOB expressed in BTI cells; assay type: cell-based

inhibition (INH) [1] | IC50 [2] | Ratio IC50 (Homo sapiens) | IC50 [3] | Compound
Not Active | Not Active |  |  | COc1ccccc1-c1cc2cc(C)ccc2oc1=O
Not Active |  | > 7660 |  | COc1ccc(-c2cc3cc(C)ccc3oc2=O)cc1
Not Active |  | > 125000 | 0.803 nM | COc1cccc(-c2cc3cc(C)ccc3oc2=O)c1
Not Active |  |  |  | Cc1ccc2oc(=O)c(-c3ccc(O)cc3)cc2c1
